These results are taken from EP0552624B1, “Use of 9-cis retinoic acid, salts and esters thereof for the treatment of epithelial tumors” (F. HOFFMANN-LA ROCHE AG, priority 1992, dated 1993).

Broadly, the LD50 is the dose expected to kill half of the subjects tested. Read a high LD50 as a less toxic substance.

Molecules are shown by their SMILES.

The test system of series [1] is SKv-e2 (tumorigenic). Description: Cell induced angiogenesis, in vivo pretreatment of mice, SKv-e2. More on the design: species or system Balb/c mice. The settings on record: mice pretreated in vivo intraperitoneally before intradermal cell injection, control 31.3 ± 2.7. On the procedure: (§1) The angiogenesis assays have been, previously described (Sidky YA and Auerbach R. Lymphocyte induced angiogenesis: A quantitative and sensitive assay of the graft-vs-host reaction. J. exp Med 141: 1084-1100, 1975. Majewski S et al. Inhibition of tumour-induced angiogenesis by systemically administered protamine sulphate. Int J Cancer 33: 831-833, 1984). Two assays were used in testing 9-cis retinoic acid. In the first assay the retinoid was added in vitro to the cell line before being injected into mice. In the second assay the mice were injected intraperitoneally with the retinoid in vivo before the tumor cell line was injected intradermally.

In series [2] the test system is SKv-12 (Tumorigenic). Description: Cell induced angiogenesis, in vivo pretreatment of mice, SKv-12. More on the design: species or system Balb/c mice. Conditions: mice pretreated in vivo intraperitoneally before intradermal cell injection, control 30.3 ± 2.6. On the procedure:
as §1

In series [3] the test system is SKv-e1 (non-tumorigenic). In words: Cell induced angiogenesis, in vitro preincubation of cells, SKv-e1. Type of series: in vivo, Balb/c mice. On the procedure:
as §1
(§2) Method: Cells of two tumorigenic cell lines, SKv-e2 and HeLa, and of a non-tumorigenic cell line, SKv-e1 were preincubated in vitro for 48 hours with 9-cis retinoic acid at a concentration of 10^-7 M followed by cell counting and washing in TC 199 medium. The cell concentration was adjusted to 2·10^5 viable cells per 0.1 ml of medium and injected intradermally into X-ray irradiated, but not retinoid-treated Balb/c mice. Controls were injected with tumor cells preincubated with DMSO. The angiogenic effect was determined according to the methods referred to above.

The nature of series [4]: Acute toxicity, single intraperitoneal dose. Type of series: in vivo, Füllinsdorf albino mice. Conditions: single i.p. dose in rape oil. On the procedure:
Acute Toxicity was determined in Füllinsdorf albino mice. 9-cis retinoic acid was suspended in rape oil and administered intraperitoneally in one single dose. The lethal dose (LD) of 10%, 50% and 90% of the mice was recorded 24 hours, 10 days and 20 days after the application of the single dose. For each group 10 mice were used.

The test system of series [5] is HeLa (tumorigenic). In words: Cell induced angiogenesis, in vivo pretreatment of mice, HeLa. More on the design: species or system Balb/c mice. Conditions: mice pretreated in vivo intraperitoneally before intradermal cell injection, control 28.3 ± 0.8. As for the experimental part:
as §1

Series [6] concerns SKv-e2 (tumorigenic). Description: Tumor cell induced angiogenesis, in vitro preincubation of cells, SKv-e2. It counts as in vivo. The settings on record: SKv-e2 cells preincubated in vitro 48 hours with 10^-7 M, injected intradermally into untreated Balb/c mice; controls 34.7±3.7. On the procedure: as §1, §2
For series [7], the system named is SKv-e1 (non-tumorigenic). Description: Cell induced angiogenesis, in vivo pretreatment of mice, SKv-e1. More on the design: species or system Balb/c mice. On the procedure: as §1
Series [8] deals with HeLa (tumorigenic). Description: Tumor cell induced angiogenesis, in vitro preincubation of cells, HeLa. It counts as in vivo. Conditions: HeLa cells preincubated in vitro 48 hours with 10^-7 M, injected intradermally into untreated Balb/c mice; controls 32.5±2.7. On the procedure:
as §1, §2

Series [9] concerns SKv-l1, a transformed keratinocyte cell line containing human papilloma virus 16 (HPV 16). In words: Proliferation assay by direct cell counting on HPV 16-containing transformed keratinocytes. It counts as cell-based. Conditions: 48 h, 10^-6 M, incubated for 2 days, p < 0.001, read-out: inhibited proliferation (growth inhibition in % compared to controls). On the procedure:
9-cis retinoic acid was further investigated on its effect on other transformed cell lines. A proliferation assay was performed on a virus containing cell line. SKv-l1, a transformed keratinocyte cell line containing human papilloma virus 16 (HPV 16) was tested with regard to inhibition of proliferation by 9-cis retinoic acid in two experiments with four replicates. 5·10^4 cells/well were plated in Eagle's medium and incubated for 2 days. Direct cell counting with a hemocytometer was done before and after incubation with the retinoid in a concentration of 10^-6 M and in corresponding DMSO controls. Growth inhibition was expressed in % compared to controls.

Take `CC(=CC=C/C(C)=C/C(=O)O)/C=C/C1=C(C)CCCC1(C)C` (stereo in doubt) [9-cis retinoic acid, (E,Z,E,E)-3,7-dimethyl-9-[2,6,6-trimethyl-1-cyclohexen-1-yl]-2,4,6,8-nonatetraenoic acid]: the “Mean number of blood vessels” value was found to be 19.7 ± 0.6 in series [1]; 15.3 ± 1.0 in [2]; 25.6±2.2 p < 0.1 in [3] (SKv-e1 cells preincubated in vitro 48 hours with 10^-7 M, injected intradermally into untreated Balb/c mice, controls 26.3±1.5); 16.3 ± 1.8 in [5]; 23.6±4.2 p < 0.001 in [6]; 24.3 ± 5.6 in series [7] (SKv-e1, mice pretreated in vivo intraperitoneally before intradermal cell injection, control 19.7 ± 3.7). Further, in [8], the “Mean number of blood vessels” value is 23.8±2.9 p < 0.001. Besides, in series [3] (in vitro preincubation of SKv-e1 cells, result in words), the “angiogenesis induced by the non-tumorigenic subline” value was “did not inhibit angiogenesis”. In series [4] (Füllinsdorf albino, mouse, in vivo, ip, recorded 24 hours after), the LD50 at 24 hours is > 4000 mg/kg. Also, in series [4] (Füllinsdorf albino, mouse, in vivo, ip, recorded 10 days after), the LD50 at 10 days came to 1400 mg/kg. In addition, the LD50 at 20 days in series [4] (Füllinsdorf albino, mouse, in vivo, ip, recorded 20 days after) came out at 1400 mg/kg. In addition, the “LD 10%” value was > 4000 mg/kg in series [4] (recorded 24 hours after), 1200 mg/kg in series [4] (recorded 10 days after) and 1200 mg/kg in series [4] (recorded 20 days after). Also, the figures for the “LD 90%” value in series [4] (recorded 24 hours after), in [4] (recorded 10 days after) and in series [4] (recorded 20 days after) were > 4000 mg/kg, 1800 mg/kg and 1800 mg/kg, respectively. The “anti-angiogenic effect with a non-tumorigenic cell line” value in series [7] (mice treated in vivo, result in words) is “no anti-angiogenic effect”. In series [9], the inhibition at 1 µM turned out to be 32.4%.
